From ChEMBL document CHEMBL1201862, “PubChem BioAssay data set” (2004) come the findings set out here.

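Cells were grown in 96-well plates and exposed to each compound for 48 hours at five concentrations; endpoints were interpolated linearly between bracketing concentrations, or set to the highest concentration if not reached. Here, GI50 denotes the concentration required for 50% inhibition of growth.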 Calls of active or inactive are those of the source. Cut-off read from the data, not from the text of the source: active = GI50 up to about 1.1 µM and inactive = higher.

Among the test systems are A498; A549; ACHN; COLO 205; HOP-62; LOX IMVI; M14; MOLT-4; NCI-H460; OVCAR-8; SF-268; SK-MEL-28; SK-OV-3; SNB-75; TK-10; UACC-257.
Experiment in all cases: NCI-60 cell line screen, 48 h

With `Cc1ccc(NC(=O)C(=O)Cc2cc[n+]([O-])cc2)cc1`, the GI50 in the experiment with A498, in the experiment on A549, in the experiment on ACHN, in the experiment on COLO 205, in the experiment on HOP-62 and in the experiment on LOX IMVI was > 100 µM (inactive) throughout. Moreover, the GI50 in the experiment on M14, in the experiment on MOLT-4, in the experiment on NCI-H460, with OVCAR-8, in the experiment with SF-268 and with SK-MEL-28 was > 100 µM (inactive) each time. Further, the GI50 in the experiment with SK-OV-3, in the experiment with SNB-75, in the experiment with TK-10 and in the experiment with UACC-257 was > 100 µM (inactive) in each case.
On to `COc1ccc(/C=C/c2cc(OC)c(OC)c(OC)c2)cc1`, for which the GI50 in the experiment with A498 is 3.4 µM (inactive); with A549, 7.55 µM (inactive); in the experiment on ACHN, 5.98 µM (inactive); with COLO 205, 3.14 µM (inactive); with HOP-62, 3.48 µM (inactive); with LOX IMVI, 5.52 µM (inactive). For the same compound, the GI50 with M14 was 42 µM (inactive); with MOLT-4, 2.21 µM (inactive); in the experiment on NCI-H460 it was 3.9 µM (inactive); in the experiment on OVCAR-8, 15.8 µM (inactive); with SF-268 it was 15.1 µM (inactive); in the experiment on SK-MEL-28 it was 18.7 µM (inactive). Moreover, the GI50 with SK-OV-3 is 8.59 µM (inactive); with SNB-75, 3.43 µM (inactive); in the experiment on TK-10, 43.7 µM (inactive); in the experiment with UACC-257 it was > 100 µM (inactive).
For the compound `COc1cc(OC)c(OC)cc1/C=N/NC(=O)N/N=C/c1cc(OC)c(OC)cc1OC`, the GI50 with A498, with A549, in the experiment on ACHN, in the experiment with COLO 205, in the experiment with LOX IMVI and with M14 was > 100 µM (inactive) throughout. Further, the GI50 is > 100 µM (inactive) in the experiment with MOLT-4; > 100 µM (inactive) in the experiment on NCI-H460; 91 µM (inactive) in the experiment with OVCAR-8; > 100 µM (inactive) in the experiment with SF-268; > 100 µM (inactive) with SK-MEL-28; > 100 µM (inactive) with SK-OV-3. Moreover, the values for the GI50 in the experiment on SNB-75, in the experiment on TK-10 and with UACC-257 were 15.8 µM (inactive), > 100 µM (inactive) and > 100 µM (inactive), respectively.
`COc1cc2c(c(OC)c1OC)-c1ccc(SC)c(=O)cc1C(CC(=O)Oc1cccc([N+](=O)[O-])c1)C2` (centres undefined): the GI50 with A498 is 0.0277 µM (active); in the experiment on A549, 1.16 µM (inactive); in the experiment on ACHN it was 0.891 µM (active); in the experiment on COLO 205, 0.489 µM (active); with LOX IMVI, 0.867 µM (active); in the experiment on M14, 0.412 µM (active). The GI50 in the experiment on MOLT-4 is 1.15 µM (inactive); in the experiment on NCI-H460 it was 0.45 µM (active); in the experiment with OVCAR-8, 0.767 µM (active); in the experiment on SF-268, 1.02 µM (active); in the experiment with SK-MEL-28, 0.546 µM (active); in the experiment with SK-OV-3, 0.0736 µM (active). For the same compound, the GI50 was 0.268 µM (active) with SNB-75, > 90.8 µM (inactive) in the experiment on TK-10 and 2.89 µM (inactive) with UACC-257.
In the case of `Cc1cc(N(CCC#N)CCC#N)ccc1/C=C1N=C(/C=C\c2ccccc2)N(c2ccc(C(=O)O)cc2)C\1=O`, the GI50 in the experiment with A498, in the experiment with A549, with ACHN, in the experiment with COLO 205, in the experiment with HOP-62 and in the experiment on LOX IMVI was > 100 µM (inactive) throughout. For the same compound, the GI50 with M14, in the experiment on MOLT-4, with NCI-H460, in the experiment on OVCAR-8, with SF-268 and in the experiment on SK-MEL-28 was > 100 µM (inactive) each time. Besides, the GI50 with SK-OV-3, in the experiment on SNB-75, with TK-10 and with UACC-257 was > 100 µM (inactive) throughout.
With `COC1OC(CO)C(O)C1N` (centres undefined), the GI50 with A498, in the experiment with A549, with ACHN, with COLO 205, with HOP-62 and with LOX IMVI was > 100 µM (inactive) each time. Further, the GI50 with M14, with MOLT-4, with NCI-H460, with OVCAR-8, with SF-268 and in the experiment on SK-MEL-28 was > 100 µM (inactive) in each case. Further, the GI50 with SK-OV-3, in the experiment with SNB-75, in the experiment with TK-10 and with UACC-257 was > 100 µM (inactive) throughout.
For the compound `CCOCN1COCN(C)C1=O`, the GI50 with A498, in the experiment with A549, with ACHN, in the experiment with COLO 205, in the experiment with HOP-62 and in the experiment on LOX IMVI was > 100 µM (inactive) throughout. Besides, the GI50 with M14, in the experiment on NCI-H460, with OVCAR-8, with SF-268, in the experiment with SK-MEL-28 and in the experiment on SK-OV-3 was > 100 µM (inactive) in each case. Also, the GI50 in the experiment with SNB-75, with TK-10 and in the experiment on UACC-257 was > 100 µM (inactive) in each case.
`Cc1ccc2c(CC(=O)O)cc(=O)oc2c1`: the GI50 in the experiment with A498, with A549, with ACHN, in the experiment with COLO 205, with HOP-62 and with LOX IMVI was > 100 µM (inactive) in each case. In addition, the GI50 with M14, with MOLT-4, in the experiment on NCI-H460, with OVCAR-8, with SF-268 and in the experiment on SK-MEL-28 was > 100 µM (inactive) throughout. Further, the GI50 in the experiment with SK-OV-3 is > 100 µM (inactive); with SNB-75, 44.9 µM (inactive); with TK-10, > 100 µM (inactive).
As to `[C-]#[N+]C(C)(C)C[C@H]1CC(C)C2CCC(C)C3([N+]#[C-])CCC(=C)C1[C@H]23` (some centres undefined), the GI50 is 7.96 µM (inactive) with A498; 1.58 µM (inactive) in the experiment on A549; 0.169 µM (active) with ACHN; 0.166 µM (active) with COLO 205; 2.55 µM (inactive) in the experiment with HOP-62; 0.147 µM (active) with LOX IMVI. In addition, the GI50 in the experiment on M14 is 1.95 µM (inactive); with MOLT-4, 0.316 µM (active); in the experiment on OVCAR-8, 0.227 µM (active); in the experiment with SF-268, 0.308 µM (active); with SK-MEL-28, 11.3 µM (inactive); with SK-OV-3 it was 3.69 µM (inactive). For the same compound, the GI50 in the experiment with SNB-75 was 8.32 µM (inactive); in the experiment on TK-10, 5.62 µM (inactive); with UACC-257, 0.959 µM (active).
Consider `CCN(CC)/[N+]([O-])=N/OCC(C)O` (centres undefined), for which the GI50 with A498, in the experiment with A549, with ACHN, in the experiment with HOP-62, in the experiment with LOX IMVI and with M14 was > 100 µM (inactive) each time. For the same compound, the GI50 in the experiment on MOLT-4, in the experiment on NCI-H460, in the experiment on OVCAR-8, with SF-268, in the experiment on SK-MEL-28 and in the experiment with SK-OV-3 was > 100 µM (inactive) each time. Moreover, the GI50 in the experiment with SNB-75, in the experiment with TK-10 and with UACC-257 was > 100 µM (inactive) each time.
As to `COc1ccc(C#CCC(OC2OC(CO)C(O)C(O)C2O)C(O)c2ccc(OC)c(OC)c2)cc1OC` (centres undefined), the GI50 was > 100 µM (inactive) in the experiment on A498; > 100 µM (inactive) with A549; > 100 µM (inactive) with ACHN; > 100 µM (inactive) with COLO 205; > 100 µM (inactive) in the experiment with HOP-62; 22.8 µM (inactive) in the experiment with LOX IMVI. In addition, the GI50 in the experiment with M14, in the experiment with MOLT-4, in the experiment on NCI-H460, in the experiment with OVCAR-8, with SF-268 and with SK-MEL-28 was > 100 µM (inactive) each time. In addition, the GI50 in the experiment on SK-OV-3, in the experiment with SNB-75 and in the experiment with UACC-257 was > 100 µM (inactive) in each case.
Regarding `C=CC/N=C1/N=C(CC(=O)OCC)CS1`, the GI50 with A498, with A549, in the experiment with ACHN, in the experiment on COLO 205, in the experiment with HOP-62 and in the experiment on LOX IMVI was > 100 µM (inactive) in each case. The GI50 in the experiment on M14, in the experiment with NCI-H460, in the experiment on OVCAR-8, in the experiment with SF-268, with SK-MEL-28 and in the experiment on SK-OV-3 was > 100 µM (inactive) each time. Also, the GI50 in the experiment on SNB-75, in the experiment on TK-10 and with UACC-257 was > 100 µM (inactive) each time.
In the case of `CC1CCC[P+](Cc2ccccc2)(c2ccccc2)CC1` (centres undefined), the GI50 in the experiment with A498 is > 100 µM (inactive); with A549, > 100 µM (inactive); in the experiment on ACHN, > 100 µM (inactive); in the experiment on COLO 205, 40.4 µM (inactive); in the experiment with HOP-62, > 100 µM (inactive); in the experiment with LOX IMVI, 32 µM (inactive). The GI50 with M14 is 35.9 µM (inactive); with MOLT-4 it was 78.5 µM (inactive); in the experiment with NCI-H460 it was 79.6 µM (inactive); in the experiment on OVCAR-8, 59.8 µM (inactive); with SF-268, 89.1 µM (inactive); in the experiment with SK-MEL-28, 41.2 µM (inactive). The values for the GI50 in the experiment on SK-OV-3, in the experiment on SNB-75 and with TK-10 were > 100 µM (inactive), 40.3 µM (inactive) and > 100 µM (inactive), respectively.
